The source of these data is US10105357B2, “Indication of antibiotic drugs for preparation of cancer inhibition pharmaceutical composition” (LAUNX BIOMEDICAL CO., LTD., priority 2014, dated 2018).

Where a name gives a salt, the structure may show the parent alone. Read-outs that look alike come from different tables or passages of the source.

Holding throughout (format): cell-based, human
The subject of one assay is cancer cell lines. The assay can be described thus: Cell viability analysis (WST-1) on cancer cell lines. Particulars: drug 10 μM, 72 hours, WST-1; Table 3.
Assay [1] concerns HI650 (Lung Adenocarcinoma). The assay can be described thus: Cell viability analysis, lung cancer HI650. Particulars: Homo sapiens, NCI-H1650, 72 h.
Assay [2] concerns A549 (Lung Adenocarcinoma). The assay can be described thus: Cell viability analysis, lung cancer A549. Particulars: Homo sapiens, A549, 72 h.
The subject of assay [3] is AGS (Gastric Adenocarcinoma). Briefly: Cell viability analysis, gastric cancer AGS. Particulars: Homo sapiens, 72 h.
The subject of assay [4] is MKN-45 (Gastric Adenocarcinoma). Briefly: Cell viability analysis, gastric cancer MKN-45. Particulars: Homo sapiens, MKN-45, 72 h.
Assay [5] deals with HepG2 (Hepatocellular Carcinoma). The assay can be described thus: Cell viability analysis, hepatic cancer HepG2. Particulars: Homo sapiens, HepG2, 72 h.
Assay [6] has as its system LoVo (Colorectal Adenocarcinoma). Briefly: Cell viability analysis, colon cancer LoVo. Particulars: Homo sapiens, LoVo, 72 h.
Assay [7] concerns A375 (Amelanotic Melanoma). The assay can be described thus: Cell viability analysis, skin cancer A375. Particulars: Homo sapiens, A-375, 72 h.
The subject of assay [8] is HeLa (Cervix Adenocarcinoma). Briefly: Cell viability analysis, cervical cancer HeLa. Particulars: Homo sapiens, HeLa, 72 h.
The subject of assay [9] is PC3 (p53−) (Prostate Adenocarcinoma). Briefly: Cell viability analysis, prostate cancer PC3. Particulars: Homo sapiens, 72 h.
For assay [10], the system named is TSGH-8301 (Urinary Bladder Carcinoma). Briefly: Cell viability analysis, bladder cancer TSGH-8301. Particulars: Homo sapiens, 72 h.
The subject of assay [11] is MCF7 (Mammary Gland, Adenocarcinoma). Briefly: Cell viability analysis, breast cancer MCF7. Particulars: Homo sapiens, MCF7, 72 h.
Assay [12] deals with HL-60 (Acute Promyelocytic Leukemia). The assay can be described thus: Cell viability analysis, leukemia HL-60. Particulars: Homo sapiens, HL-60, 72 h.
Setting [13] is: read-out: cell viability (survival rate), H1650, drug 10 μM, 72 hours, WST-1, OD450 nm.
Setting [14] is: read-out: cell viability (survival rate), A549, drug 10 μM, 72 hours, WST-1, OD450 nm.
Setting [15] is: read-out: cell viability (survival rate), AGS, drug 10 μM, 72 hours, WST-1, OD450 nm.
Where [16] appears, read: read-out: cell viability (survival rate), MKN-45, drug 10 μM, 72 hours, WST-1, OD450 nm.
Setting [17] is: read-out: cell viability (survival rate), HepG2, drug 10 μM, 72 hours, WST-1, OD450 nm.
[18] abbreviates: read-out: cell viability (survival rate), LoVo, drug 10 μM, 72 hours, WST-1, OD450 nm.
Setting [19] is: read-out: cell viability (survival rate), A375, drug 10 μM, 72 hours, WST-1, OD450 nm.
[20] abbreviates: read-out: cell viability (survival rate), HeLa, drug 10 μM, 72 hours, WST-1, OD450 nm.
Where [21] appears, read: read-out: cell viability (survival rate), PC3, drug 10 μM, 72 hours, WST-1, OD450 nm.
Setting [22] is: read-out: cell viability (survival rate), TSGH, drug 10 μM, 72 hours, WST-1, OD450 nm.
Where [23] appears, read: read-out: cell viability (survival rate), MCF7, drug 10 μM, 72 hours, WST-1, OD450 nm.
Where [24] appears, read: read-out: cell viability (survival rate), HL-60, drug 10 μM, 72 hours, WST-1, OD450 nm.
[25] abbreviates: drug 10 μM, 72 hours, WST-1, OD450 nm, read-out: cell viability (survival rate), H1650.
Setting [26] is: drug 10 μM, 72 hours, WST-1, OD450 nm, read-out: cell viability (survival rate), A549.
Setting [27] is: drug 10 μM, 72 hours, WST-1, OD450 nm, read-out: cell viability (survival rate), AGS.
Where [28] appears, read: drug 10 μM, 72 hours, WST-1, OD450 nm, read-out: cell viability (survival rate), MKN-45.
[29] abbreviates: drug 10 μM, 72 hours, WST-1, OD450 nm, read-out: cell viability (survival rate), HepG2.
Setting [30] is: drug 10 μM, 72 hours, WST-1, OD450 nm, read-out: cell viability (survival rate), A375.
Setting [31] is: drug 10 μM, 72 hours, WST-1, OD450 nm, read-out: cell viability (survival rate), HeLa.
The mark [32] stands for this setting: drug 10 μM, 72 hours, WST-1, OD450 nm, read-out: cell viability (survival rate), PC3.
Setting [33] is: drug 10 μM, 72 hours, WST-1, OD450 nm, read-out: cell viability (survival rate), TSGH.
[34] abbreviates: drug 10 μM, 72 hours, WST-1, OD450 nm, read-out: cell viability (survival rate), MCF7.
Setting [35] is: drug 10 μM, 72 hours, WST-1, OD450 nm, read-out: cell viability (survival rate), HL-60.

Consider `NC1CCN(c2c(F)cc3c(=O)c(C(=O)O)cn(C4CC4)c3c2Cl)C1` (stereo not drawn) [Clinafloxacin (PD127391), Clinafloxacin], for which the “inhibition effect on different cancer cell lines” value in the assay with cancer cell lines is given as “significant inhibition effect”. Further, the viability at 10 µM was 72.4% in [1] (setting [13]); 67.5% in assay [2] (setting [14]); 74.2% in assay [3] (setting [15]); 91.3% in assay [4] (setting [16]); 73.8% in assay [5] (setting [17]); 92.7% in assay [6] (setting [18]). The viability at 10 µM in assay [7] (setting [19]) amounted to 59.3%; in assay [8] (setting [20]) it was 97%; in assay [9] (setting [21]), 36.7%; in assay [10] (setting [22]), 83.3%; in [11] (setting [23]) it was 78.6%; in assay [12] (setting [24]), 71.2%.
Regarding `Clc1cccc(Cl)c1N=C1NCCN1` [Clonidine hydrochloride (Catapres), Clonidine hydrochloride], the “inhibition effect on different cancer cell lines” value in the assay with cancer cell lines is recorded as “significant inhibition effect”. Further, the viability at 10 µM is 64.1% in assay [1] (setting [13]); 37.3% in [2] (setting [14]); 36.4% in [3] (setting [15]); 48.8% in [4] (setting [16]); 83.7% in assay [5] (setting [17]); 72.1% in assay [6] (setting [18]). Moreover, the viability at 10 µM in assay [7] (setting [19]) was found to be 62.5%; in assay [8] (setting [20]) it was 72%; in assay [9] (setting [21]) it was 40.7%; in assay [10] (setting [22]), 28.5%; in assay [11] (setting [23]) it was 68.8%; in [12] (setting [24]) it was 128%.
With `Clc1ccccc1C(c1ccccc1)(c1ccccc1)n1ccnc1` [Clotrimazole (Canesten), Clotrimazole], the “inhibition effect on different cancer cell lines” value with cancer cell lines is listed as “significant inhibition effect”. For the same compound, the viability at 10 µM in assay [1] (setting [13]) turned out to be 75.9%; in assay [2] (setting [14]) it was 85.5%; in assay [3] (setting [15]), 85.7%; in [4] (setting [16]) it was 53.9%; in [5] (setting [17]), 102%; in assay [6] (setting [18]), 94.1%. The viability at 10 µM in [7] (setting [19]) came out at 81.4%; in assay [8] (setting [20]), 90%; in assay [9] (setting [21]), 69.3%; in assay [10] (setting [22]), 50.8%; in [11] (setting [23]) it was 56.8%; in [12] (setting [24]), 106%.
In the case of `CN(C)c1ccc(C(=C2C=CC(=[N+](C)C)C=C2)c2ccc(N(C)C)cc2)cc1` [Crystal violet], the “inhibition effect on different cancer cell lines” value in the assay with cancer cell lines is on record as “significant inhibition effect”. The viability at 10 µM in assay [1] (setting [13]) came out at 68.5%; in assay [2] (setting [14]), 37.5%; in assay [3] (setting [15]) it was 52.7%; in assay [4] (setting [16]), 44.8%; in assay [5] (setting [17]), 70.3%; in [6] (setting [18]) it was 62.3%. Also, the viability at 10 µM in [7] (setting [19]) came to 32%; in [8] (setting [20]) it was 38.9%; in assay [9] (setting [21]), 31.8%; in assay [10] (setting [22]) it was 44.1%; in assay [11] (setting [23]), 46%; in [12] (setting [24]), 37.3%.
As to `CC(C)(C)c1nc(-c2cccc(NS(=O)(=O)c3c(F)cccc3F)c2F)c(-c2ccnc(N)n2)s1` [Dabrafenib (GSK2118436), Dabrafenib], the “inhibition effect on different cancer cell lines” value in the assay on cancer cell lines is recorded as “significant inhibition effect”. Also, the viability at 10 µM in assay [1] (setting [25]) amounted to 73.6%; in assay [2] (setting [26]), 134%; in [3] (setting [27]), 90.1%; in assay [4] (setting [28]), 98.7%; in assay [5] (setting [29]) it was 91.3%; in [6] (setting [18]), 70.5%. Moreover, the viability at 10 µM turned out to be 42.1% in assay [7] (setting [30]); 78.5% in [8] (setting [31]); 100% in assay [9] (setting [32]); 90.5% in [10] (setting [33]); 94.1% in assay [11] (setting [34]); 72.9% in assay [12] (setting [35]).
For the compound `CCCCCCCCCC(=O)N[C@@H](Cc1c[nH]c2ccccc12)C(=O)N[C@H](CC(N)=O)C(=O)N[C@@H](CC(=O)O)C(=O)N[C@@H]1C(=O)NCC(=O)N[C@@H](CCCN)C(=O)N[C@@H](CC(=O)O)C(=O)N[C@H](C)C(=O)N[C@@H](CC(=O)O)C(=O)NCC(=O)N[C@H](CO)C(=O)N[C@@H]([C@H](C)CC(=O)O)C(=O)N[C@@H](CC(=O)c2ccccc2N)C(=O)O[C@@H]1C` [Daptomycin], the “inhibition effect on different cancer cell lines” value in the assay on cancer cell lines is “significant inhibition effect”. For the same compound, the viability at 10 µM in [1] (setting [13]) is 76.3%; in assay [2] (setting [14]) it was 74%; in assay [3] (setting [15]), 63%; in assay [4] (setting [16]) it was 92.1%; in [5] (setting [17]) it was 95.9%; in assay [6] (setting [18]), 90.9%. Moreover, the viability at 10 µM in assay [7] (setting [19]) is 81.2%; in [8] (setting [20]), 114%; in assay [9] (setting [21]), 79.7%; in assay [10] (setting [22]) it was 56.8%; in assay [11] (setting [23]), 85.3%; in [12] (setting [24]) it was 108%.
Regarding `NC(=O)C(c1ccccc1)(c1ccccc1)[C@@H]1CCN(CCc2ccc3c(c2)CCO3)C1` [Darifenacin HBr], in the assay with cancer cell lines, the “inhibition effect on different cancer cell lines” value is reported as “significant inhibition effect”. For the same compound, the viability at 10 µM in assay [1] (setting [25]) was determined as 126%; in [2] (setting [26]), 100%; in [3] (setting [27]) it was 80.4%; in assay [4] (setting [28]), 82.4%; in assay [5] (setting [29]) it was 81.6%; in assay [6] (drug 10 μM, 72 hours, WST-1, OD450 nm, read-out: cell viability (survival rate), LoVo), 93.5%. Besides, the viability at 10 µM in assay [7] (setting [30]) worked out at 60.5%; in assay [8] (setting [31]), 87.7%; in assay [9] (setting [32]) it was 86.1%; in assay [10] (setting [33]) it was 99.8%; in assay [11] (setting [34]), 59.7%; in [12] (setting [35]) it was 78.2%.
For `N#CC(c1ccc(Cl)cc1)c1c(Cl)cc(-n2ncc(=O)[nH]c2=O)cc1Cl` (stereo not drawn) [Diclazuril], the “inhibition effect on different cancer cell lines” value in the assay with cancer cell lines is on record as “significant inhibition effect”. For the same compound, the viability at 10 µM worked out at 104% in [1] (setting [25]); 42.7% in [2] (setting [26]); 76.3% in [3] (setting [27]); 97.9% in [4] (setting [28]); 99.3% in assay [5] (setting [29]); 78.4% in assay [6] (setting [18]). Moreover, the viability at 10 µM in assay [7] (setting [30]) worked out at 84.5%; in assay [8] (setting [31]) it was 76.1%; in assay [9] (setting [32]) it was 95.5%; in assay [10] (setting [33]) it was 103%; in assay [11] (setting [34]), 40.4%; in assay [12] (setting [35]) it was 70.2%.
Take `O=C(O)Cc1ccccc1Nc1c(Cl)cccc1Cl` [Diclofenac Potassium]: the “inhibition effect on different cancer cell lines” value in the assay with cancer cell lines is recorded as “significant inhibition effect”. Besides, the viability at 10 µM in [1] (setting [13]) was found to be 43.9%; in assay [2] (setting [14]), 81.7%; in assay [3] (setting [15]), 91.4%; in [4] (setting [16]), 40.5%; in assay [5] (setting [17]), 107%; in [6] (setting [18]) it was 85%. For the same compound, the viability at 10 µM was 51.5% in assay [7] (setting [19]); 76.1% in assay [8] (setting [20]); 63.3% in assay [9] (setting [21]); 122% in assay [10] (setting [22]); 76.3% in assay [11] (setting [23]); 96.3% in [12] (setting [24]).
